Data from patent publication US20120149708A1, “MODULATORS OF VIRAL TRANSCRIPTION, AND METHODS AND COMPOSITIONS THEREWITH” (George Mason University, priority 2010, published 2012).

Legend:
[1] = system: HIV-1 transcription; assay: HIV-1 transcription inhibition in T-cells and monocytes; type: cell-based; settings: T-cells versus monocytes
[2] = system: HIV-1; settings: T-cells, monocytes, and peripheral blood mononuclear cells; cited from earlier work
[3] = system: ACH2 cells (HIV-1 infected); assay: Cell viability by trypan blue exclusion, 48 hours; type: cell-based; settings: Human immunodeficiency virus 1, ACH-2, 48 h, read-out: Inhibition Percentage ACH2, 50 nM, 48 hrs, HIV-1 infected
Procedure: (§1) TZM-bl cell lines were grown in Dulbecco's modified Eagle's medium supplemented with fetal bovine serum (FBS) (10%, v/v), 2 mM L-glutamine, and antibiotics (penicillin 100 U/ml, streptomycin […]) (cDMEM). HCT116 WT and HCT116 Dicer−/−cell lines were grown in McCoy's medium supplemented with FBS (10%, v/v), 2mM L-glutamine, and antibiotics (penicillin 100 U/ml, streptomycin […]). CEM, ACH2, Jurkat and U937 cells were grown in RPMI 1640 supplemented with FBS, L-glutamine, and antibiotics (penicillin 100 U/ml, streptomycin […]). All cell lines were maintained at 37° C. in 5% (v/v) CO2. […]
(§2) In brief, the inhibition studies were carried out as follows. HIV-1 infected cells ACH2, J1.1, OM10.1, U1 and uninfected CEM, Jurkat T-cells, and U937 were cultured in media. The appropriate inhibitor was added at a concentration of 10 μM. Cells were treated for 48 hours and cell viability was determined using trypan blue exclusion method. Results of such a screen for 19 inhibitors is shown in Table 1 where percent dead cells are indicated each drug tested.
(§3) Again HIV-1 infected and uninfected cells were treated with eighteen Formula I compounds at a drug concentration of 50 nm. Forty-eight hours after treatment, cytotoxicity was determined by trypan blue dye exclusion. Percent inhibition was calculated after obtaining the cell density for each well of the tissue culture plate at the end of 48 hrs.

[4] = system: Jurkat T-cells (uninfected); assay: Cell viability by trypan blue exclusion, 48 hours; type: cell-based; settings: Homo sapiens, Jurkat, 50 nM, 48 hrs, read-out: Inhibition Percentage Jurkat
Procedure: as §1, §2, §3

[5] = system: J1.1 cells (HIV-1 infected); assay: Cell viability by trypan blue exclusion, 48 hours; type: cell-based; settings: 50 nM, 48 hrs, HIV-1 infected
Procedure: as §2, §3

[6] = system: OM10.1 cells (HIV-1 infected); assay: Cell viability by trypan blue exclusion, 48 hours; type: cell-based; settings: Human immunodeficiency virus 1; 50 nM, 48 hrs, HIV-1 infected; read-out: Inhibition Percentage OM10.1
Procedure: as §2, §3

[7] = system: U1 cells (HIV-1 infected); assay: Cell viability by trypan blue exclusion, 48 hours; type: cell-based; settings: 50 nM, 48 hrs, HIV-1 infected
Procedure: as §2, §3

[8] = system: CEM cells (uninfected); assay: Cell viability by trypan blue exclusion, 48 hours; type: cell-based; settings: 50 nM, 48 hrs
Procedure: (§4) TZM-bl cell lines were grown in Dulbecco's modified Eagle's medium supplemented with fetal bovine serum (FBS) (10%, v/v), 2 mM L-glutamine, and antibiotics (penicillin 100 U/ml, streptomycin […]) (cDMEM). HCT116 WT and HCT116 Dicer−/−cell lines were grown in McCoy's medium supplemented with FBS (10%, v/v), 2mM L-glutamine, and antibiotics (penicillin 100 U/ml, streptomycin […]). CEM, ACH2, Jurkat and U937 cells were grown in RPMI 1640 supplemented with FBS, L-glutamine, and antibiotics (penicillin 100 U/ml, streptomycin […]). All cell lines were maintained at 37° C. in 5% (v/v) CO2.
(§5) ACH2 cells are infected with HIV-1; TZM-bl cells contain a stably-integrated HIV-1 LTR-Luciferase reporter; CEM, Jurkat, and U937 cells are uninfected. Transfections were carried out using Attractene (Qiagen) lipid reagent. Cells were cultured to confluence and pelleted at 4° C. for 15 min at 3,000 rpm. The cell pellets were washed twice with 25 ml of phosphate-buffered saline (PBS) with Ca2+ and Mg2+ (Quality Biological) and centrifuged once more. Cell pellets were resuspended in lysis buffer (50 mM Tris-HCl, pH 7.5, 120 mM NaCl, 5 mM EDTA, 0.5%, v/v, NP-40, 50 mM NaF, 0.2 mM Na3VO4, 1 mM DTT, one complete protease cocktail tablet/50 ml (Roche) and incubated on ice for 20 min, with gentle vortexing every 5 min. Cell lysates were transferred to eppendorf tubes and were centrifuged at 10,000 rpm for 10 min. Supernatants were transferred to a fresh tube where protein concentrations were determined using Bio-Rad protein assay (Bio-Rad, Hercules, Calif.).
as §2, §3

[9] = system: U937 cells (uninfected); assay: Cell viability by trypan blue exclusion, 48 hours; type: cell-based; settings: Homo sapiens, U-937, 50 nM, 48 hrs, read-out: Inhibition Percentage U937
Procedure: as §4, §5, §2, §3

[10] = system: HIV-1 infected and uninfected cells; assay: Classification of inhibitors by effect on viability of infected versus uninfected cells; type: cell-based; settings: 50 nM; high, moderate or poor
Text: The inhibitors were classified into three categories: high, moderate or poor, according to their effect on cellular viability in both HIV-1 infected and uninfected cells. Among the compounds tested in this study, CR8, a purine analog bearing a 2-pyridyl group para to the phenyl ring position 6 of the purine was the most promising drug candidate that killed HIV-1 infected cells, while having little or no effect on the death of uninfected cells.

[11] = system: infected ACH2, J1.1, OM10.1, U1 cells; assay: MTT assay, infected cells; type: cell-based; settings: 50 nm and 10 μM
Procedure: (§6) FIGS. 1 and 2 show screening results of CR8 derivatives on Tat-dependent transcription HIV-1 LTR. […] TZM-bl cells were transfected with 1 ug of Tat and treated the next day with DMSO, or the indicated CR8 derivative compounds at 50 nm. 48 hrs-post drug treatment, luciferase activity of the firefly luciferase was measured with the BrightGlo Luciferase Assay and luminescence was read from a 96 well plate on an EG&G Berthold luminometer. Assays were performed in triplicate, average and standard deviations are shown.
(§7) Quantitative MTT assays were performed (FIG. 2), to further validate the cell growth inhibitory activity of certain Formula I compounds. In this study, cultured, infected ACH2, J1.1, OM10.1, U1 and uninfected CEM, Jurkat T-cells, and U937 cells were brought in contact with Formula I compounds CR8, MRT-033, and BJFP1154 (CR8#13). Cell growth inhibition study was performed at two different concentrations of the inventive compounds, a low concentration of 50 nm, and high concentration of 10 μM.

[12] = system: uninfected CEM, Jurkat T-cells, and U937 cells; assay: MTT assay, uninfected cells; type: cell-based; settings: 50 nm and 10 μM
Procedure: as §6, §7

Row | SMILES | inhibition of transcription [1] | inhibition of HIV-1 (IC50) [2] | inhibition at 0.05 µM [3] [%] | inhibition at 0.05 µM [4] [%] | Inhibition Percentage J1.1 [5] | inhibition at 0.05 µM [6] [%] | Inhibition Percentage U1 [7] | Inhibition Percentage CEM [8] | inhibition at 0.05 µM [9] [%] | Selectivity [10] | cell killing of infected cells (MTT) [11] | cell inhibition of uninfected cells (MTT) [12]
1 | CC[C@@H](CO)Nc1nc(NCc2ccc(-c3ccccn3)cc2)c2ncn(C(C)C)c2n1 [Cyc202] | effectively inhibited transcription in T-cells but not in monocytes | low IC50 | – | – | – | – | – | – | – | – | – | –
2 | CC[C@H](CO)Nc1nc(NCc2ccc(-c3ccccn3)cc2)n2ncc(C(C)C)c2n1.O=C(O)/C=C/C(=O)O [MRT-033, R-2-(8-isopropyl-4-(4-(pyridine-2-yl)benzylamino)pyrazolo[1,5-α]-1,3,5-triazine-2-ylamino)butan-1-ol] | – | – | 90 | 50 | ++ (~50%) | 75 | ++ (~50%) | + (~25%) | 90 | High | significant cell killing of infected cells over uninfected cells | some cell inhibition activity of uninfected cells
